Reference: BindingDB's records for doi:10.7270/Q2JQ0ZGP (Nmmlsc, 2010)

Molecular target: 60S ribosomal protein L19-A (Saccharomyces cerevisiae (strain ATCC 204508 / S288c), UniProt P0CX82)
Assay: Dose response follow up of MLPCN hits, RPL19A GFP fusion, TOR pathway (AID 2740)

60S ribosomal protein L19-A, sequence (P0CX82 whole entry, the tested form may be a part): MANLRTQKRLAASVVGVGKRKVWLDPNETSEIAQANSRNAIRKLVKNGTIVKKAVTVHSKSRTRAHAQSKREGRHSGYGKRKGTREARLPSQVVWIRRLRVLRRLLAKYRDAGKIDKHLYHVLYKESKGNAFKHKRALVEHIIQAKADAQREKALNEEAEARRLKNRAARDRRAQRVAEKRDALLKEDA

O=C1NC(=S)NC(=O)C1=Cc1ccc2c(c1)CCN2CCCCl [5-[[1-(3-chloropropyl)-2,3-dihydroindol-5-yl]methylidene]-2-sulfanylidene-1,3-diazinane-4,6-dione]
EC50: > 33 µM

CS(=O)(=O)c1nc(-c2cccs2)cc(C(F)(F)F)n1 [MLS000044645]
EC50: > 33 µM
